How the values were obtained:
[1] = target: T1, Tyrosinase (Agaricus bisporus) (UniProt O42713); assay: Inhibition of diphenolase activity of mushroom tyrosinase at 0.051 mM
T1 sequence (whole entry): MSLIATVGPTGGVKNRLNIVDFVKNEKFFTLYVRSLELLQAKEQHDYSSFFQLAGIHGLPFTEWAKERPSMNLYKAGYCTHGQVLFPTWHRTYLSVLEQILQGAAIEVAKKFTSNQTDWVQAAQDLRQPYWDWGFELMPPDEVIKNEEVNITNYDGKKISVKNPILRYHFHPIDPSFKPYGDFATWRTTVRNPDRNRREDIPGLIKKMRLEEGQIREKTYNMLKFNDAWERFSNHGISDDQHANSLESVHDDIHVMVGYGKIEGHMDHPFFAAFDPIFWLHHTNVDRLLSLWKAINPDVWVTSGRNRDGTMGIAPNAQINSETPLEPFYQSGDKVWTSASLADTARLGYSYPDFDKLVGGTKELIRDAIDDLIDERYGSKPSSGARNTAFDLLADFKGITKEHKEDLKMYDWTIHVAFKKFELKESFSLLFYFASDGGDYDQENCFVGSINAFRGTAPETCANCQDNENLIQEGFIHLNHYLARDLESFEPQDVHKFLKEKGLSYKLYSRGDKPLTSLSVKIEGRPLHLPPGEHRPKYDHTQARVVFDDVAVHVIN

[2] = target: T1, Tyrosinase (Agaricus bisporus); assay: Inhibition of diphenolase activity of mushroom tyrosinase at 0.053 mM
[3] = target: T1, Tyrosinase (Agaricus bisporus); assay: Inhibition of diphenolase activity of mushroom tyrosinase at 0.042 mM
[4] = target: T1, Tyrosinase (Agaricus bisporus); assay: Inhibition of diphenolase activity of mushroom tyrosinase at 0.056 mM
[5] = target: T1, Tyrosinase (Agaricus bisporus); assay: Inhibition of diphenolase activity of mushroom tyrosinase at 0.052 mM
[6] = target: T1, Tyrosinase (Agaricus bisporus); assay: Inhibition of diphenolase activity of mushroom tyrosinase at 0.064 mM
[7] = target: T1, Tyrosinase (Agaricus bisporus); assay: Inhibition of diphenolase activity of mushroom tyrosinase at 0.083 mM
[8] = target: T1, Tyrosinase (Agaricus bisporus); assay: Inhibition of diphenolase activity of mushroom tyrosinase at 0.044 mM
[9] = target: T1, Tyrosinase (Agaricus bisporus); assay: Inhibition of diphenolase activity of mushroom tyrosinase at 0.049 mM
[10] = target: T1, Tyrosinase (Agaricus bisporus); assay: Inhibition of diphenolase activity of mushroom tyrosinase at 0.041 mM
[11] = target: T1, Tyrosinase (Agaricus bisporus); assay: Inhibition of diphenolase activity of mushroom tyrosinase at 0.070 mM
[12] = target: T1, Tyrosinase (Agaricus bisporus); assay: Inhibition of diphenolase activity of mushroom tyrosinase at 0.036 mM
[13] = target: T1, Tyrosinase (Agaricus bisporus); assay: Inhibition of diphenolase activity of mushroom tyrosinase at 0.035 mM
[14] = target: T1, Tyrosinase (Agaricus bisporus); assay: Inhibition of diphenolase activity of mushroom tyrosinase at 0.231 mM
[15] = target: T1, Tyrosinase (Agaricus bisporus); assay: Inhibition of diphenolase activity of mushroom tyrosinase at 0.055 mM
[16] = target: T1, Tyrosinase (Agaricus bisporus); assay: Inhibition of diphenolase activity of mushroom tyrosinase at 0.011 mM
[17] = target: T1, Tyrosinase (Agaricus bisporus); assay: Inhibition of diphenolase activity of mushroom tyrosinase at 0.034 mM
[18] = target: T1, Tyrosinase (Agaricus bisporus); assay: Inhibition of diphenolase activity of mushroom tyrosinase at 0.050 mM
[19] = target: T1, Tyrosinase (Agaricus bisporus); assay: Inhibition of diphenolase activity of mushroom tyrosinase at 0.093 mM
[20] = target: T1, Tyrosinase (Agaricus bisporus); assay: Inhibition of diphenolase activity of mushroom tyrosinase at 0.074 mM

`COc1cc(/C=C/C(=O)O[C@H]2[C@H](O[C@@H]3O[C@@H](C)[C@H](O)[C@@H](O)[C@H]3O)[C@@H](O)[C@H](OCCc3ccc(O)c(O)c3)O[C@@H]2CO)ccc1O` showed an inhibition [1] of 21.6%.

`C[C@@H]1O[C@@H](O[C@@H]2[C@@H](O)[C@H](OCCc3ccc(O)c(O)c3)O[C@H](CO)[C@H]2OC(=O)/C=C/c2ccc(O)c(O)c2)[C@H](O)[C@H](O)[C@H]1O` showed an inhibition [2] of 25.8%.

Work on `COc1ccc(CCO[C@@H]2O[C@H](CO)[C@@H](OC(=O)/C=C/c3ccc(O)c(OC)c3)[C@H](O[C@@H]3O[C@@H](C)[C@H](O)[C@@H](O)[C@H]3O[C@@H]3OC[C@@H](O)[C@@H](O)[C@@H]3O)[C@H]2O)cc1O` yielded an inhibition [3] of 9.48%.

`COc1cc(-c2oc3cc(O)cc(O)c3c(=O)c2O[C@@H]2O[C@H](COC(=O)/C=C/c3ccc(O)cc3)[C@@H](O)[C@H](O)[C@H]2O)ccc1O` showed an inhibition [2] of 21.1%.

Work on `O=C(O)CC(OC(=O)/C=C/c1ccc(O)c(O)c1)C(=O)O` (stereo unspecified) yielded an inhibition [4] of 4.62%.

In the case of `COc1ccc(CCO[C@@H]2O[C@H](CO)[C@@H](OC(=O)/C=C/c3ccc(O)c(OC)c3)[C@H](O[C@@H]3O[C@@H](C)[C@H](O)[C@@H](O)[C@H]3O)[C@H]2O)cc1O`, the inhibition [5] was 20.6%.

For `COc1cc([C@@H]2OC[C@@H](Cc3ccc(O[C@H]4O[C@@H](CO)[C@H](O)[C@@H](O)[C@@H]4O)c(OC)c3)[C@H]2CO)ccc1O`, the inhibition [6] was 12.3%.

`COc1cc(-c2cc(=O)c3c(O)cc(O)cc3o2)ccc1O` was tested, and the inhibition [7] was 16.4%.

`C[C@H]1O[C@H](O[C@@H]2[C@@H](O)[C@H](OCCc3ccc(O)c(O)c3)O[C@H](CO[C@H]3O[C@@H](CO)[C@H](O)[C@@H](O)[C@@H]3O)[C@H]2OC(=O)/C=C/c2ccc(O)c(O)c2)[C@@H](O)[C@@H](O)[C@@H]1O` was tested, and the inhibition [3] was 17.5%.

`C[C@@H]1O[C@@H](O[C@@H]2[C@@H](O)[C@H](OCCc3ccc(O)c(O)c3)O[C@H](CO)[C@H]2OC(=O)/C=C/c2ccc(O)c(O)c2)[C@H](O[C@@H]2OC[C@@H](O)[C@@H](O)[C@@H]2O)[C@H](O)[C@H]1O` showed an inhibition [8] of 12%.

Work on `O=C(/C=C/c1ccc(O)c(O)c1)O[C@@H]1C[C@](O)(C(=O)O)C[C@@H](O)[C@H]1O` yielded an inhibition [9] of 7.78%.

`O=C(O)/C=C/c1ccc(O)cc1` gave an inhibition [10] of 8.87%.

Work on `COc1cc(-c2oc3cc(O)cc(O)c3c(=O)c2O[C@@H]2O[C@H](CO)[C@@H](O)[C@H](O)[C@H]2O)ccc1O` yielded an inhibition [11] of 24.2%.

`C[C@@H]1O[C@@H](O[C@@H]2[C@@H](O)[C@H](OCCc3ccc(O)c(O)c3)O[C@H](CO[C@@H]3O[C@H](CO)[C@@H](O)[C@H](O)[C@H]3O)[C@H]2OC(=O)/C=C/c2ccc(O)c(O)c2)[C@H](O[C@@H]2OC[C@@H](O)[C@@H](O)[C@@H]2O)[C@H](O)[C@H]1O` showed an inhibition [12] of 12.4%.

`COc1cc(-c2oc3cc(O)cc(O)c3c(=O)c2O[C@@H]2O[C@H](COC(C)=O)[C@@H](O)[C@H](O)[C@H]2O)ccc1O` gave an inhibition [6] of 23.3%.

With `COc1ccc(-c2cc(=O)c3c(O)c(O)c(OC)cc3o2)cc1` the inhibition [2] was 2.78%.

`COc1cc(/C=C/C(=O)O)ccc1O` gave an inhibition [13] of 6.68%.

For `COc1cc(/C=C/C(=O)O[C@H]2[C@H](O[C@@H]3O[C@@H](C)[C@H](O)[C@@H](O)[C@H]3O[C@@H]3OC[C@@H](O)[C@@H](O)[C@@H]3O)[C@@H](O)[C@H](OCCc3ccc(O)c(OC)c3)O[C@@H]2CO)ccc1O`, the inhibition [3] was 17.3%.

`COc1ccc(-c2cc(=O)c3c(OC)c(OC)c(OC)cc3o2)cc1` was tested, and the inhibition [9] was 3.23%.

Work on `COc1cc(/C=C/C(=O)O[C@H]2[C@H](O[C@H]3O[C@H](C)[C@@H](O)[C@H](O)[C@@H]3O)[C@@H](O)[C@H](OCCc3ccc(O)c(OC)c3)O[C@@H]2CO[C@H]2OCC(O)(CO)[C@@H]2O)ccc1O` (stereo partly specified) yielded an inhibition [3] of 12.7%.

With `C[N+]1(C)CCC[C@@H]1C(=O)[O-]` the inhibition [14] was 11.1%.

Work on `COc1cc(C[C@@H]2CO[C@@H](c3ccc(O[C@H]4O[C@@H](CO)[C@H](O)[C@@H](O)[C@@H]4O)c(OC)c3)[C@@H]2CO)ccc1O[C@H]1O[C@@H](CO)[C@H](O)[C@@H](O)[C@@H]1O` yielded an inhibition [9] of 11.1%.

In the case of `COc1cc(/C=C/C(=O)O[C@H]2[C@H](O[C@@H]3O[C@@H](C)[C@H](O)[C@@H](O)[C@H]3O[C@@H]3OC[C@@H](O)[C@@H](O)[C@@H]3O)[C@@H](O)[C@H](OCCc3ccc(O)c(O)c3)O[C@@H]2CO[C@@H]2O[C@H](CO)[C@@H](O)[C@H](O)[C@H]2O)ccc1O`, the inhibition [12] was 15.5%.

In the case of `C[C@H]1O[C@H](OC[C@H]2O[C@@H](Oc3c(-c4ccc(O)cc4)oc4cc(O)c(O)c(O)c4c3=O)[C@H](O)[C@@H](O)[C@@H]2O)[C@@H](O)[C@@H](O)[C@@H]1O`, the inhibition [15] was 27.1%.

With `O=c1cc(-c2ccc(O)cc2)oc2c(O)c(O)c(O)c(O)c12` the inhibition [15] was 5.21%.

For `COc1cc(C[C@@H]2CO[C@@H](c3ccc(O[C@H]4O[C@@H](CO)[C@H](O)[C@@H](O)[C@@H]4O)c(OC)c3)[C@@H]2CO)ccc1O`, the inhibition [6] was 17.7%.

`O=c1c(O)c(-c2ccc(O)c(O)c2)oc2cc(O)cc(O)c12` showed an inhibition [1] of 49.7%.

`C[C@@H]1O[C@@H](OC[C@H]2O[C@@H](Oc3c(-c4ccc(O)cc4)oc4cc(O)cc(O)c4c3=O)[C@H](O)[C@@H](O)[C@@H]2O)[C@H](O)[C@H](O)[C@H]1O` was tested, and the inhibition [4] was 16.1%.

For `O=C(/C=C/c1ccc(O)cc1)OC[C@H]1O[C@@H](Oc2c(-c3ccc(O)cc3)oc3cc(O)cc(O)c3c2=O)[C@H](O)[C@@H](O)[C@@H]1O`, the inhibition [4] was 30.2% and the inhibition [16] was 14.7%.

With `COc1cc(-c2oc3cc(O)cc(O)c3c(=O)c2O[C@@H]2O[C@H](CO[C@@H]3O[C@@H](C)[C@H](O)[C@@H](O)[C@H]3O)[C@@H](O)[C@H](O)[C@H]2O)ccc1O` the inhibition [2] was 13.1%.

`C[C@H]1O[C@H](O[C@@H]2[C@@H](O)[C@H](O)O[C@H](CO)[C@H]2OC(=O)/C=C/c2ccc(O)c(O)c2)[C@@H](O)[C@@H](O)[C@@H]1O` was tested, and the inhibition [17] was 10.9%.

`COc1ccc(-c2cc(=O)c3c(OC)c(O)c(OC)cc3o2)cc1` gave an inhibition [18] of 4.24%.

Compound `COc1ccc(CCO[C@@H]2O[C@H](CO[C@@H]3O[C@H](CO)[C@@H](O)[C@H](O)[C@H]3O)[C@@H](OC(=O)/C=C/c3ccc(O)c(OC)c3)[C@H](O[C@@H]3O[C@@H](C)[C@H](O)[C@@H](O)[C@H]3O[C@@H]3OC[C@@H](O)[C@@H](O)[C@@H]3O)[C@H]2O)cc1O` has an inhibition [13] of 13.2%.

Compound `O=c1cc(-c2ccc(O)cc2)oc2cc(O)cc(O)c12` has an inhibition [19] of 14%.

Work on `O=c1c(O[C@@H]2O[C@H](CO)[C@@H](O)[C@H](O)[C@H]2O)c(-c2ccc(O)cc2)oc2cc(O)cc(O)c12` yielded an inhibition [20] of 24.2%.

Compound `COc1ccc(CCO[C@@H]2O[C@H](CO[C@H]3O[C@@H](CO)[C@H](O)[C@@H](O)[C@@H]3O)[C@@H](OC(=O)/C=C/c3ccc(O)c(OC)c3)[C@H](O[C@H]3O[C@H](C)[C@@H](O)[C@H](O)[C@@H]3O)[C@H]2O)cc1O` has an inhibition [10] of 22.6%.

Work on `C[C@@H]1O[C@@H](OC[C@H]2O[C@@H](Oc3c(-c4ccc(O)c(O)c4)oc4cc(O)cc(O)c4c3=O)[C@H](O)[C@@H](O)[C@@H]2O)[C@H](O)[C@H](O)[C@H]1O` yielded an inhibition [15] of 12.7%.

With `O=c1cc(-c2ccc(O)c(O)c2)oc2cc(O[C@@H]3O[C@H](CO)[C@@H](O)[C@H](O)[C@H]3O)cc(O)c12` the inhibition [20] was 27.4%.

`O=C(/C=C/c1ccc(O)cc1)OC[C@H]1O[C@@H](Oc2c(-c3ccc(O)c(O)c3)oc3cc(O)cc(O)c3c2=O)[C@H](O)[C@@H](O)[C@@H]1O` gave an inhibition [15] of 21.9%.

Compound `COc1cc(-c2cc(=O)c3c(O)cc(O[C@@H]4O[C@H](COC(=O)/C=C/c5ccc(O)cc5)[C@@H](O)[C@H](OC(=O)/C=C/c5ccc(O)cc5)[C@H]4O)cc3o2)ccc1O` has an inhibition [8] of 15.6%.
